These results are taken from ChEMBL document CHEMBL5465560, “Selectivity Literature for EUbOPEN Chemogenomic Library” (2024).

Test [1] deals with T1, Ephrin type-A receptor 1 (Homo sapiens) (UniProt P21709).
T1 sequence (whole entry): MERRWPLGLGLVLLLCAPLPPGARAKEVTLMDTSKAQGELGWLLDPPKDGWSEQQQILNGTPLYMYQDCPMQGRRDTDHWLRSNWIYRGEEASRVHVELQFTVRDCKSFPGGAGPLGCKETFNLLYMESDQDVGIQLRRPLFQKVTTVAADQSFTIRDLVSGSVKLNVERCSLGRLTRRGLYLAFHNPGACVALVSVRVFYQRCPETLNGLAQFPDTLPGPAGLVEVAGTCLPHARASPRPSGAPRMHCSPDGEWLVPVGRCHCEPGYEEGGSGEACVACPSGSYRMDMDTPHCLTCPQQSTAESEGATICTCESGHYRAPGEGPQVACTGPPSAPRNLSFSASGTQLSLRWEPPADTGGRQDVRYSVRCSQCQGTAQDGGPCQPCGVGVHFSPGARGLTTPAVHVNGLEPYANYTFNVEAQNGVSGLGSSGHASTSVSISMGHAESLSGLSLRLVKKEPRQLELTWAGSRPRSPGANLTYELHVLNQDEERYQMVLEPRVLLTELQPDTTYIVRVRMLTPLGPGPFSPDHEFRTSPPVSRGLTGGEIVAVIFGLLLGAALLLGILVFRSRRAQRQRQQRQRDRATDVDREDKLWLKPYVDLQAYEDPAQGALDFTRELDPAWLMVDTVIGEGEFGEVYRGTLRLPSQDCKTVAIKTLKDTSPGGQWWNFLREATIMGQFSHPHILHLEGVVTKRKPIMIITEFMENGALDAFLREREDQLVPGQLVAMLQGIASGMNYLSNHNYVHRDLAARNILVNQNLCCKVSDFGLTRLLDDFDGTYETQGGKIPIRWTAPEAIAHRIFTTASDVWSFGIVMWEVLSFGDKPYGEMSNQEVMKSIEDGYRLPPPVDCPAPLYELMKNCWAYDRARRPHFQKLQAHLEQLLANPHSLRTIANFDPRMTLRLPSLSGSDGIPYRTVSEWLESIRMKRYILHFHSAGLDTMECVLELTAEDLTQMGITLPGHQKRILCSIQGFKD
In words: Selectivity interaction (ActivX KiNativ screen (ex vivo kinase selectivity in human PBMCs)) EUB0001619a EPHA1. The note with it: PBMC, at 1 µM. In kind it is cell-based.

For test [2], the target named is Dual specificity protein kinase CLK4 (Homo sapiens, UniProt Q9HAZ1). The settings on record: at 10 µM.
Test [3] deals with Receptor-type tyrosine-protein kinase FLT3 (Homo sapiens) (UniProt P36888). The note with it: at 10 µM.
For test [4], the target named is Protein kinase C delta type (Homo sapiens) (UniProt Q05655). In words: Selectivity interaction (Kinase panel (Invitrogen)) EUB0000639a PRKCD. The note with it: at 200 nM.
Test [5] concerns the target Cyclin-dependent kinase-like 1 (Homo sapiens) (UniProt Q00532). In words: Selectivity interaction (Kinase panel (DSF assay)) EUB0001559a CDKL1. (Differential scanning fluorimetry follows unfolding on heating by fluorescence.)
Test [6] has as its target Fibroblast growth factor receptor 1 (Homo sapiens, UniProt P11362). Kind of test: (§1) Selectivity interaction (ProQinase) EUB0000171b FGFR1.
For test [7], the system named is Fibroblast growth factor receptor 1 (Homo sapiens), P11362 [V561M]. Described as §1.
Sequence of Fibroblast growth factor receptor 1 (Homo sapiens), P11362 [V561M] (P11362 whole entry V561M): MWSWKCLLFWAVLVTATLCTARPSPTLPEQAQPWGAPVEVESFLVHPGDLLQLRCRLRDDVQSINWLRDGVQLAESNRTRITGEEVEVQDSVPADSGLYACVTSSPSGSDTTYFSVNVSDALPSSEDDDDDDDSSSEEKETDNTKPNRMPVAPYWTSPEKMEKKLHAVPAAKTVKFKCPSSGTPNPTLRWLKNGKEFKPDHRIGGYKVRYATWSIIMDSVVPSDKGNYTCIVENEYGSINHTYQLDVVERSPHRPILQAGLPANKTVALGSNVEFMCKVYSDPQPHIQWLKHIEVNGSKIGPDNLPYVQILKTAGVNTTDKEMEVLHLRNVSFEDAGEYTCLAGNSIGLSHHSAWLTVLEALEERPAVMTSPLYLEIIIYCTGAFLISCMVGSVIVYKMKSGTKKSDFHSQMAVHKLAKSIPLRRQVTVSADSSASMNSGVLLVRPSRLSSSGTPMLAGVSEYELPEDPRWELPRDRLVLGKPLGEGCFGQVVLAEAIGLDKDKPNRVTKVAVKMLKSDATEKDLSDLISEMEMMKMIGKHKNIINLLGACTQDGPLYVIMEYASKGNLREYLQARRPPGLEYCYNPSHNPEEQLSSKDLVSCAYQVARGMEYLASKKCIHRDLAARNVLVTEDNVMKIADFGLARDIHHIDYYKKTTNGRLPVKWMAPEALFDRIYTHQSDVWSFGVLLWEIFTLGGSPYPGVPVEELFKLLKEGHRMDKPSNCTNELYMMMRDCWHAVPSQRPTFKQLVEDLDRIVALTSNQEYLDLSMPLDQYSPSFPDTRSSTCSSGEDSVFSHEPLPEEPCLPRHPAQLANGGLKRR
The target in test [8] is Serine/threonine-protein kinase Nek6 (Homo sapiens) (UniProt Q9HC98). Kind of test: Selectivity interaction (ProQinase) EUB0000171b NEK6.
Test [9] has as its target ALK tyrosine kinase receptor (Homo sapiens, UniProt Q9UM73). Kind of test: (§2) Selectivity interaction (ProQinase) EUB0000171b ALK.
The subject of test [10] is ALK tyrosine kinase receptor (Homo sapiens), Q9UM73 [F1174L]. The test is described as §2.
Test [11] has as its system ALK tyrosine kinase receptor (Homo sapiens), Q9UM73 [R1275Q]. The description is as §2.
Test [12] deals with ALK tyrosine kinase receptor (Homo sapiens), Q9UM73 [L1196M]. The test is described as §2.
Sequence of ALK tyrosine kinase receptor (Homo sapiens), Q9UM73 [L1196M] (Q9UM73 whole entry L1196M, looked up): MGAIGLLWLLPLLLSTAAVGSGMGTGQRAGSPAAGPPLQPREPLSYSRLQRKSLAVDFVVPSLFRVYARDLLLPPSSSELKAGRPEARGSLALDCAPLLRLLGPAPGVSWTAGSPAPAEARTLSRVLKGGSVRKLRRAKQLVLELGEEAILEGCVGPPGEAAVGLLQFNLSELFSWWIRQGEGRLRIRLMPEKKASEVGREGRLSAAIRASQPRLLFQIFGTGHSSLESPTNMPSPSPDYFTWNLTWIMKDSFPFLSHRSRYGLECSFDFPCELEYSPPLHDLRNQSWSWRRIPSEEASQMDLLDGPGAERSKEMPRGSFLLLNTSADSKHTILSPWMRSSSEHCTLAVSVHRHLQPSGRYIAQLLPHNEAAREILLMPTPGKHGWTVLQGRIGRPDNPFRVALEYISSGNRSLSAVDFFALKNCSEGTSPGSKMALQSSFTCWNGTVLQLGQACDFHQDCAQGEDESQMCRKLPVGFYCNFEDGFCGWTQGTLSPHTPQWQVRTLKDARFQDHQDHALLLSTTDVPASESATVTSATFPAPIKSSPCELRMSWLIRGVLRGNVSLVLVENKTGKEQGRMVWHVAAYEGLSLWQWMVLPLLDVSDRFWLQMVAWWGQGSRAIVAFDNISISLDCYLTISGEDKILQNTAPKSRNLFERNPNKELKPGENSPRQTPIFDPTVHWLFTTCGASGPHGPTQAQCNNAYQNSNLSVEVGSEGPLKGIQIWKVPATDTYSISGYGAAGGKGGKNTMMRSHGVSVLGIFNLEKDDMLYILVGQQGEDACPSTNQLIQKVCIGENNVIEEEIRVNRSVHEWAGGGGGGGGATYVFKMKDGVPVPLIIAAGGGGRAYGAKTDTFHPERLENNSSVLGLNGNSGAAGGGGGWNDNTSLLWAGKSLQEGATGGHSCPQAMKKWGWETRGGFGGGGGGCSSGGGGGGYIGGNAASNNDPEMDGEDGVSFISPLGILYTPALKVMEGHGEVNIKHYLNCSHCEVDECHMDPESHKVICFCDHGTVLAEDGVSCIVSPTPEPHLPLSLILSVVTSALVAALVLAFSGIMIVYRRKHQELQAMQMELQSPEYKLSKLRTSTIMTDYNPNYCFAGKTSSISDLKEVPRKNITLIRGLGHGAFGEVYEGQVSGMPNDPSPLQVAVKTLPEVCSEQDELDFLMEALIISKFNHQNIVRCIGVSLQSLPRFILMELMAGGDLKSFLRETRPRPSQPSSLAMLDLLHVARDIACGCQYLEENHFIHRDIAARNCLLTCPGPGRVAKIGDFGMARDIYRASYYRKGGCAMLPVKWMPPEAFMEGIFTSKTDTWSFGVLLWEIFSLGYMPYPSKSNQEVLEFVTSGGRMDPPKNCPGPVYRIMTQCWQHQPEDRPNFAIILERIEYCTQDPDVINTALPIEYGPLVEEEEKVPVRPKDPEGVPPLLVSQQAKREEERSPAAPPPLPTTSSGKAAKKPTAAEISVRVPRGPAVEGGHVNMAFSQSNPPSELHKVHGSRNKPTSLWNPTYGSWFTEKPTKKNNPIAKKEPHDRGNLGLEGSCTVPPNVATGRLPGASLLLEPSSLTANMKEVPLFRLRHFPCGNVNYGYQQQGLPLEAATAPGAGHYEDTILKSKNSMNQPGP
Test [13] has as its system ALK tyrosine kinase receptor (Homo sapiens), Q9UM73 [C1156Y]. The test is described as §2.
The subject of test [14] is ALK tyrosine kinase receptor (Homo sapiens), Q9UM73 [F1174S]. Described as §2.
Test [15] addresses Serine/threonine-protein kinase PAK 4 (Homo sapiens, UniProt O96013).
Test [16] deals with Serine/threonine-protein kinase MRCK gamma (Homo sapiens) (UniProt Q6DT37). In words: Selectivity interaction (KinomeScan (DiscoverX)) EUB0001049a CDC42BPG. The note with it: at 1 µM.
Test [17] has as its target Wee1-like protein kinase 2 (Homo sapiens) (UniProt P0C1S8). In words: Selectivity interaction (KinomeScan (DiscoverX)) EUB0000092b WEE2. The note with it: at 10 µM.
The target of test [18] is T2, Calcium/calmodulin-dependent protein kinase type IV (Homo sapiens) (UniProt Q16566).
T2 sequence (whole entry): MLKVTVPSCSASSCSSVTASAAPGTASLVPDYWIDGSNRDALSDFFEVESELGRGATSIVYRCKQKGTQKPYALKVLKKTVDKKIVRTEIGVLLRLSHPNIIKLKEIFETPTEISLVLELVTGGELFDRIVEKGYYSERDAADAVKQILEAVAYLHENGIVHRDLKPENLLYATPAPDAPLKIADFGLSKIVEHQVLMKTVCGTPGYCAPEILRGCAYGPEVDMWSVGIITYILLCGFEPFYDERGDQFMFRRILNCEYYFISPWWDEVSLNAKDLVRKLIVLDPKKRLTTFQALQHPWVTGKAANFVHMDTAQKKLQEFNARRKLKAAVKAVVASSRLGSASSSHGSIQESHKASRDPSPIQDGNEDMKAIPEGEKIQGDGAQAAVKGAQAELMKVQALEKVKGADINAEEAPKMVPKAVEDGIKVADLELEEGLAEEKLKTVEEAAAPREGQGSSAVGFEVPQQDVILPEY
In words: Selectivity interaction (Kinase panel (KiNativ target engagement assay in Jurkat cells)) EUB0001635a CAMK4. In kind it is cell-based. The settings on record: Selectivity number of off-targets 0.0, Selectivity number of targets 233.0, Source Knowledge https://www.sciencedirect.com/science/article/pii/S2451945619300674?via%3Dihub, at 1 µM.

SMILES strings stand for the structures. pIC50: −log10 of the molar value.

Sequence of ALK tyrosine kinase receptor (Homo sapiens), Q9UM73 [R1275Q] (Q9UM73 whole entry R1275Q): as the sequence (Q9UM73 whole entry L1196M, looked up) above, with M1196L, R1275Q counted along it
Sequence of Fibroblast growth factor receptor 1 (P11362 22-822 limits assumed): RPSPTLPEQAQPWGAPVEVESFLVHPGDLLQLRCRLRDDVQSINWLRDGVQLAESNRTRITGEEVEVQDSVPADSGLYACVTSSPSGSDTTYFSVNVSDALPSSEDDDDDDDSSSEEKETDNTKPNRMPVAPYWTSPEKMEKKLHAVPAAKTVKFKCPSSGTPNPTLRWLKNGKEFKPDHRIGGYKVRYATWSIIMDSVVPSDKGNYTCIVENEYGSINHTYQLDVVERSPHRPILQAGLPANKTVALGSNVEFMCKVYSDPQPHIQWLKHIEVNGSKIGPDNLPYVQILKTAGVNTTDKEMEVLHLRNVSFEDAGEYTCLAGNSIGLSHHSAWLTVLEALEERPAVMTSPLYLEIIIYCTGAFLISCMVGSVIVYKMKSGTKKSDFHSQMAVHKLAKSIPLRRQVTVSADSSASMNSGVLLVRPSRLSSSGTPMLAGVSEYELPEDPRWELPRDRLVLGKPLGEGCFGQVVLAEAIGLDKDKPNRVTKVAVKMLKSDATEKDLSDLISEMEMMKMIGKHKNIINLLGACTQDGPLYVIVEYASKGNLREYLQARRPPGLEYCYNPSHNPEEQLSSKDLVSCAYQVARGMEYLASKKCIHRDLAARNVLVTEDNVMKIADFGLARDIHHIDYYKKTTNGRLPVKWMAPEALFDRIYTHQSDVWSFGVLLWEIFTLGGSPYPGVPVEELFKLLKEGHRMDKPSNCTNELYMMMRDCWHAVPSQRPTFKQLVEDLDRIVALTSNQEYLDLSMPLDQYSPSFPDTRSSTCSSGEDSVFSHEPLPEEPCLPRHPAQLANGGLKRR

Take `N#Cc1cccc(-c2c[nH]c3ncnc(N4CCOCC4)c23)c1`: the % of inhibition in [1] was -3%.

On to `Cc1cc([C@@H](C)Nc2ccccc2C(=O)O)c2nc(N3CCOCC3)cc(=O)n2c1` [AZD-6482], for which the % of control came to 68% in test [2] and 13% in test [3].

For `CC[C@@H]1[C@H](F)C(=O)N[C@@H]1COc1nccc2cc(C(N)=O)c(OC)cc12` [ZIMLOVISERTIB], the % of inhibition in test [4] was -5.07%.

`CN(C(=O)c1cnn2cccnc12)c1cc2c(cc1N1CCOCC1)C(=O)N(C[C@@H](F)C(C)(C)O)C2`: the dTM in test [5] worked out at 1.2 K.

Regarding `C=CC(=O)Nc1cccc(C(=O)Nc2ccc(Nc3cc(-c4[nH]c(SC)nc4C)ccn3)cc2)c1`, the % of control stood at 105% in [6] (at 1 µM); 87% in [6] (at 5 µM); 99% in test [7] (at 1 µM); 65% in [7] (at 5 µM); 91% in [8] (at 1 µM); 92% in [8] (at 5 µM). Also, the % of control was 98% in test [9] (at 1 µM); 72% in test [9] (at 5 µM); 84% in test [10] (at 1 µM); 74% in [10] (at 5 µM); 85% in test [11] (at 1 µM); 73% in test [11] (at 5 µM). Besides, the % of control came out at 72% in test [12] (at 1 µM); 55% in test [12] (at 5 µM); 86% in test [13] (at 1 µM); 69% in test [13] (at 5 µM); 92% in test [14] (at 1 µM); 72% in test [14] (at 5 µM).

A word on the pIC50: it is the IC50 on a negative log10 scale, so that one unit is a factor of ten. A low value points to a large IC50. On to `CCc1cccc(CC)c1NC(=O)c1nn(C)c2c1CCc1cnc(Nc3ccc(C(=O)NC4CCN(C)CC4)cc3OC(F)(F)F)nc1-2`, for which the pIC50 in test [15] was less than 5.00.

Take `COc1cc(Nc2nc(C)cc(-c3cnn4nc(OC)ccc34)n2)cc(C(F)(F)F)c1`: in [16], the % of control stood at 89%.

Molecule `CCC(=O)N1CCN(c2ccc(-n3c(=O)ccc4cnc5ccc(-c6cnc7ccccc7c6)cc5c43)cc2C(F)(F)F)CC1` had a % of control in test [17] of 100%.

Take `C=CC(=O)Nc1ccc(C(=O)Nc2[nH]nc3c2CN(C(=O)N[C@H](CN(C)C)c2ccccc2)C3(C)C)cc1`: in test [18], the % of engagement was determined as 4.5%.
